According to patent publication US5273989A, “3,5-disubstituted 2-isoxazolines and isoxazoles, agents containing them and their use” (Hoechst Aktiengesellschaft, priority 1990, dated 1993):
Counter-ions that a name gives are not always drawn. Like-named read-outs stand apart in the source and are kept apart here.

What was measured:
[1] = system: NMDA-stimulated 3H-acetylcholine release, striatum sections; assay: Inhibition of NMDA-stimulated 3H-acetylcholine release from striatum sections of the rat brain; assay type: cell-based; conditions: preparation concentration 10 μM, 25 μmol/l NMDA stimulus, relative to control S2/S1, read-out: Inhibition of 3H-acetylcholine release from striatum sections, Inhibition (%)
Procedure: 2. Inhibition of ^3 H-acetylcholine release from striatum sections of the rat brain
Test principle: For the test, fresh striatum sections from rat brain were rinsed with buffer solution in a special chamber and the release of the tritium-labeled acetylcholine was measured after stimulation with NMDA. Preparations having NMDA-antagonist action inhibit acetylcholine release.
Experimental protocol: The superfusion experiments were carried out by the method of Wichman et al. (Naunyn-Schmied. Arch. Pharmacol., 338 (1988), 623-631). Rat brain sections, 0.5 mm thick, were preincubated for 30 min in 2 ml of incubation medium which contains 0.1 μmol/l of ^3 H-choline having a specific activity of 80 Ci/mmol. In each of 6 superfusion chambers, a section was transferred and superfused for 90 min at a rate of 1.5 ml/min. 2 min fraction of the superfusate were continuously collected. Each section was superfused twice with 25 μmol/l of NMDA of two minutes each time in order to stimulate the release of acetylcholine. The first stimulus (S1) takes place between the 54th and the 56th minute and the 2nd stimulus (S2) between the 76th and 78th minute. The incubation medium contained, in mmol/l: NaCl 118, KCl 4.8, CaCl2 1.2, MgSO4 1.2, NaHCO3 25, KH2 PO4 1.2 and glucose 10. The medium was saturated with Carbogen at 37° C. The pH was adjusted to 7.4 NMDA and the novel preparations to be tested were dissolved in superfusion medium. The superfusion was carried out using Mg^2+ -free medium. Tritium from the dissolved sections and from the superfusate was determined by liquid scintillation counting using a Packard® 1900 CA (Frankfurt) at a 50% efficiency.
Calculation of the Results
Basal release and NMDA-stimulated release for S1 and S2 were expressed in %/min of each fraction (Limberger et al, Naunyn Schmied. Arch. Pharmacol. 339 (1988), 53-61).
The value for the stimulated release S2 /S1 was calculated for the control as 0.69±0.09. The value decreases if a substance, such as, for example, the NMDA receptor antagonist CPP (3-(+)-2-carboxypiperazin-4-ylpropyl-1-phosphonic acid) known from the literature inhibited the NMDA-stimulated release. The inhibition of the stimulated release by preparations was calculated in percent, relative to the control value, and is indicated in Table 4.

[2] = system: NMDA receptor-channel complex; assay: Inhibition of 3H-MK-801 binding to membranes from rat brain; conditions: preparation concentration 50 μM; 3H-MK801 1 nM
Procedure: 3. Inhibition of ^3 H-MK-801 binding to membranes from rat brain
Test principle: MK-801 is a non-competitive antagonist which binds to ion channels coupled to NMDA receptors (Yoneda et al., Brain Res. 499 (1989), 305). Membranes from whole brain containing preparation and ^3 H-MK-801 are incubated in the test. The binding of ^3 H-MK-801 or its displacement by preparations (antagonists) is determined by radiochemical methods.
Experimental protocol: The binding experiments are carried out by the method of Reynolds et al. (Proc. Natl. Acad. Sci. USA, 84 (1987), 7744). Membrane preparation is first carried out according to Reynolds. Test samples are then pipetted, buffer and test preparation being initially introduced, then preincubated with protein for 2 minutes, and initiated using ^3 H-MK801. The membranes are thawed at 37° C., incubated at 37° C. for 10 minutes and homogenized for 15 seconds at half the maximum speed by means of a Polytron, then used in the cool state again. The incubation medium contains: pH 7.4 Hepes buffer 20 mM, preparations in three concentrations 5 μM, 10 μM and 50 μM, membranes 500 μg/ml of test solution, ^3 H-MK801 1 nM. Incubation is carried out at room temperature (23° C.) for 60 minutes and is then stopped by filtration. For this purpose, glass fiber paper No. 32 from Schleicher and Schull, which had been soaked in 0.03% polyethyleneimine for 30 minutes on the day before the experiment are counted in 4 ml of "Packard 199™" Scintillation fluid (Frankfurt). Tritium is determined by liquid scintillation counting using a Packard 1500.
Calculation of the results: The calculation of the binding in femtomol/mg of protein over a period of 60 min. was carried out using a small calculator (HP-97). If a substance antagonizes the binding, the value decreases. Substance activities are indicated in Table 5 as percentages, i.e. in % binding compared to the control. The activity of the comparison preparation CPP (3-(+)-2-carboxypiperazin-4-ylpropyl-1-phosphonic acid) at 5 μM, 10 μM and 50 μM is always determined to check the test.

[3] = system: high affinity 3H-D-aspartate absorption, synaptic vesicles (synaptosomes) from rat cortex; assay: "High affinity" absorption of 3H-aspartate in a vesicle preparation from rat brain; assay type: biochemical; conditions: relative to control values (100%)
Procedure: 1. "High affinity" absorption of ^3 H-aspartate in a vesicle preparation from rat brain.
Test principle: Fresh synaptic vesicles (synaptosomes) from rat cortex are incubated with buffer solution and ^3 H-D-aspartate and ^3 H-D-aspartate in the vesicles is measured. Preparations which in comparison to control synaptosomes increase the high affinity ^3 H-D-aspartate absorption and those which prevent the loss of ^3 H-D-aspartate by reliberation are regarded as particularly interesting.
Experimental protocol: The experiments for ^3 H-D-aspartate absorption were carried out by the method of Anand et al. (Biochem. Pharmacol., 35 (1986), 1055-1057). The synaptic vesicles were dissected out of cerebral cortex from male Sprague-Dawley rats. The preparations were tested at four concentrations as double samples in parallel with control samples containing buffer. The incubation medium (pH 7.4) contains: 1.2 mM KH2 PO4, 5 mM KCl, 5 mM pyruvate, 1.2 mM glucose, 1.2 mM MgCl2, 114 mM NaCl, 25 mM NaHCO3. For the non-specific ^3 H-D-aspartate absorption, NaCl was replaced by 114 mM choline chloride and NaHCO3 by 25 mM KHCO3. An aliquot of the vesicle suspension (about 25 μg/ml of test solution) was added to the test sample which was temperature controlled at 37° C. and aerated with Carbogen (5% CO2, 95% O2) and preincubated for 2 minutes. The three minutes incubation for the amino acid absorption was started by addition of 50 μl of ^3 H-D-aspartate (specific activity 25 Ci/mmol, 10 pmol/ml of test solution). The vesicles were separated from the incubation medium by filtration and additional washing of the adhering labeled amino acids using a Titertek cell harvester (Flow Laboratories, Meckenheim). The ^3 H-D-aspartate absorption was measured by means of a liquid scintillation counter (Canberra-Packard, Model 1500, Frankfurt).
The preparation activity is indicated in percent of the specific ^3 H-D-aspartate absorption, relative to control values (100%), in Table 3. Adenosine triphosphate (ATP) was used for comparison as the standard substance (see Table 3) and at 1 mM caused a 35% increase in the ^3 H-D-aspartate absorption.

[4] = system: CA1 pyramidal cells of the hippocampus after forebrain ischemia; assay: Neuroprotection after forebrain ischemia in the gerbil; conditions: 50 mg/kg p.o., 15 minutes before ischemia
Procedure: A 5-minutes' ischemia of the forebrain with subsequent recirculation is produced in 20 male Mongolian gerbils under halothane anesthesia by bilateral closure of the corotid artery by means of aneurysm clips. 7 days later, the animals are decapitated under halothane anesthesia, the brains are fixed by immersion in Carnoy solution and the extent of neuron damage in the CA1 region of the hippocampus is determined "blind" with the aid of a 5-stage histopathological score. The test substance is administered intraperitoneally or orally 15 minutes before ischemia to each group of 10 gerbils. One ischemic control group, also of 10 animals, is treated with the respective solvents per test substance.

[5] = system: NMDA-induced cramps; assay: Inhibition of NMDA-induced cramps in the mouse; assay type: in vivo; conditions: po, 1 h
Procedure: 4. Inhibition of NMDA-induced-cramps in the mouse
The examples listed below show neuroprotective activity in that they antagonize the cramps induced by NMDA (N-methyl-(D)-aspartate). To this end, intravenous injections of 20-30 mg/kg of NMDA are carried out on a male NMRI (Naval Medical Research Institute) mice of 22-24 g body weight, which leads to stereotypes, clonic cramps and in the majority of cases to mortality. In order to investigate an NMDA-antagonist activity of the test substances, they are administered orally one hour before NMDA. The animals are then observed for the abovementioned symptoms for up to 60 min. The number of animals with clonic cramps and the incidence of mortality, expressed in percent change compared to the control group, is regarded as the evaluation criterion.

[6] = Toxicity (LD50) in the mouse; conditions: in vivo, iv
Source text: As the examples investigated show considerable differences in toxicity compared to the standard substances, the LD50 values are also listed in Table 6,

Structure (SMILES) | inhibition at 10 µM [1] [%] | Inhibition of 3H-MK-801 binding to the NMDA receptor-channel complex, inhibition (%) [2] [%] | other results
O=C(O)C1CN(CCCP(=O)(O)O)CCN1 (racemic) [CPP, 3-(+)-2-carboxypiperazin-4-ylpropyl-1-phosphonic acid, reference compound] | 30 | 81 | 
CC(C)[C@@H]1CC[C@@H](C)C[C@H]1OC(=O)C1CC(C(=O)O)=NO1 (single isomer, unassigned; (-)) [Example 57, (-)-menthyl-3-carboxy-2-isoxazoline-5-yl-carboxylatedicyclohexylammonium salt] |  | 43 | 
O=C(O)c1cc(CNCc2ccccc2)on1 [Example 2, 5-Benzylaminomethyl-3-carboxyisoxazole] |  | 10 | Stimulation of the 3H-D-aspartate absorption, Stimulation (%) ([3]; preparation concentration 500 μM): 12%
Cl.NCc1cc(CCC(=O)OCc2ccccc2)no1 [Example 5, Benzyl 5-aminomethylisoxazole-3-propionate hydrochloride] |  | 78 | Stimulation of the 3H-D-aspartate absorption, Stimulation (%) ([3]; preparation concentration 10 μM): 26%
CC(C)[C@H]1CC[C@H](C)C[C@@H]1OC(=O)CCc1cc(C[N+](C)(C)C)on1 [Example 19, (+)-Menthyl 5-trimethylammoniomethylisoxazole-3-propionate iodide] | 16 | 16 | Stimulation of the 3H-D-aspartate absorption, Stimulation (%) ([3]; preparation concentration 100 μM): 25%; Cell necroses (% change) ([4]; histopathological score CA1, treated versus control group): -25 % change; Behavior score (% change) ([4]; treated versus control group): 0 % change
CC(C)[C@@H]1CC[C@@H](C)C[C@H]1OC(=O)CCc1cc(CNC(=O)[C@@H](N)Cc2ccccc2)on1 [Example 21, (-)-Menthyl 5-(L-phenylalanylamino)methylisoxazole-3-propionatehydrochloride] | 20 | 45 | inhibition in vivo at 50 mg/kg ([5]; 50 mg/kg p.o., one hour before NMDA i.v., change compared to control group, read-out: Inhibition of convulsions): 30%; inhibition in vivo at 50 mg/kg ([5]; read-out: Inhibition of mortality): 40%; LD50 [6]: 25 to 50 mg/kg
